The record followed here is US12479856B2, “Pharmaceutical compounds for the treatment of complement mediated disorders” (Achillion Pharmaceuticals, Inc., priority 2019, dated 2025).

Molecules are shown by their SMILES.

The target of one test is T1, Human complement C1s enzyme (Homo sapiens, UniProt P09871).
T1 construct: purified from human serum, Complement Technology, Inc; purchased Complement Technology, Inc; host or cells: human serum (plasma-derived natural protein)
T1 sequence (P09871 438-688 limits assumed): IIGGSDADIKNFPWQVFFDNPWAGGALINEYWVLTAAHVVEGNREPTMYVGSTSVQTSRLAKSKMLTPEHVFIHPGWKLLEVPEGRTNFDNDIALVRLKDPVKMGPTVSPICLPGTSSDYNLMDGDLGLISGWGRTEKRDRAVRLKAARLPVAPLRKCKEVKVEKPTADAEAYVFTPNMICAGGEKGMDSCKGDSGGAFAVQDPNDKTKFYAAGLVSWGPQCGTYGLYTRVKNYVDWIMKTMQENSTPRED
T1 sequence (P09871 16-437 partner limits assumed): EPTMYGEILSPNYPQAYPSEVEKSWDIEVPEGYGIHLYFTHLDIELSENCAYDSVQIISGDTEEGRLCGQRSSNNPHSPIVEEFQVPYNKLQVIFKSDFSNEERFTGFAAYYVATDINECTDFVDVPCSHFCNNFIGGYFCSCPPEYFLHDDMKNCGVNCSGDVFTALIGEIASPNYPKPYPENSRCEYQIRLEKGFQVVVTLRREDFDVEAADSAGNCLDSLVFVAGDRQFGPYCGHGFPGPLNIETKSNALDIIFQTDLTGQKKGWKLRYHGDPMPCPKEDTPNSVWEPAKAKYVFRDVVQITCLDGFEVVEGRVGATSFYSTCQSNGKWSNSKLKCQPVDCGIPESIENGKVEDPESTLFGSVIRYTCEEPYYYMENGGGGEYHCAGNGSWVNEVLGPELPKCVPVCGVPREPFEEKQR
As to the kind of experiment: Human C1s Enzyme Assay. It is filed as biochemical. Conditions: Table 1; C1s purified from human serum, 1.16 nM; substrate Z-L-Lys-SBzl; read-out: C1s Protease Activity. The essentials: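 Serum-purified human C1s (1.16 nM) preincubated 5 min at RT with compound in 50 mM Tris, 1 M NaCl, pH 7.5. Z-L-Lys-SBzl and DTNB (100 μM each) then added; A405 followed every 30 s for 30 min. IC50 from nonlinear regression of reaction rates versus compound concentration.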
With `Nc1cc(CCNC(=O)[C@@H]2CC3(CN2C(=O)CNC(=O)c2ccc(Oc4ccccc4)cc2)OCCO3)ccn1` [Compound 24, (8S)—N-[2-(2-Aminopyridin-4-yl)ethyl]-7-{2-[(4-phenoxyphenyl)formamido]acetyl}-1,4-dioxa-7-azaspiro[4.4]nonane-8-carboxamide], the IC50 is more than 1000 nM.
The same measure, in the same setting: the value for `CC(=O)Nc1cccc(CNC(=O)[C@@H]2CC3(CN2C(=O)CNC(=O)c2ccc(Oc4ccccc4)cc2)OCCO3)c1` [Compound 20, (8S)—N-[(3-Acetamidophenyl)methyl]-7-{2-[(4-phenoxyphenyl)formamido]acetyl}-1,4-dioxa-7-azaspiro[4.4]nonane-8-carboxamide] was more than 1000 nM; that for `CO[C@H]1C[C@@H](C(=O)CNC(=O)c2ccc(Oc3ccccc3)cc2)[C@H](C(=O)NCc2cc(C(=N)N)cs2)C1` [Compound 35, N-(2-((1R,2R,4S)-2-(((4-carbamimidoylthiophen-2-yl)methyl)carbamoyl)-4-methoxycyclopentyl)-2-oxoethyl)-4-phenoxybenzamide] was 100 to 1000 nM; that for `N=C(N)c1csc(CNC(=O)[C@@H]2CC(=O)CN2C(=O)CNC(=O)c2ccc(Oc3ccccc3)cc2)c1` [Compound 15, (2S)—N-[(4-Carbamimidoylthiophen-2-yl)methyl]-4-oxo-1-{2-[(4-phenoxyphenyl)formamido]acetyl}pyrrolidine-2-carboxamide] was less than 100 nM.
The same measure, in the same setting: next, `NCCCCCNC(=O)[C@@H]1CC2(CN1C(=O)CNC(=O)c1ccc(Oc3ccccc3)cc1)OCCO2` [Compound 26, (8S)—N-(5-Aminopentyl)-7-{2-[(4-phenoxyphenyl)formamido]acetyl}-1,4-dioxa-7-azaspiro[4.4]nonane-8-carboxamide]: more than 1000 nM.
Still for that read-out and setting: the value for `C[C@@]1(C(=O)NCc2cc(C(=N)N)cs2)CCCN1C(=O)CNC(=O)c1ccc(Oc2ccccc2)cc1` [Compound 3, (2S)—N-[(4-Carbamimidoylthiophen-2-yl)methyl]-2-methyl-1-{2-[(4-phenoxyphenyl)formamido]acetyl}pyrrolidine-2-carboxamide] was less than 100 nM.
As for `N=C(N)c1csc(CNC(=O)C2CC3(CCC3)CN2C(=O)CNC(=O)c2ccc(Oc3ccccc3)cc2)c1` (centres unmarked) [Compound 11, N-[(4-Carbamimidoylthiophen-2-yl)methyl]-6-{2-[(4-phenoxyphenyl)formamido]acetyl}-6-azaspiro[3.4]octane-7-carboxamide], the IC50 is less than 100 nM.

Still in this test, the particulars now being: Table 2; C1s purified from human serum, 1.16 nM; substrate Z-L-Lys-SBzl; read-out: C1s Protease Activity.
For the compound `CCCCc1cc(C(=O)NCC(=O)N2CCC[C@H]2C(=O)NCc2cc(C(=N)N)cs2)ccc1Oc1ccccc1` [Compound 43, (S)-1-((3-butyl-4-phenoxybenzoyl)glycyl)-N-((4-carbamimidoylthiophen-2-yl)methyl)pyrrolidine-2-carboxamide], the IC50 is less than 100 nM.
Regarding `CCOc1ccc(C(=O)NCC(=O)N2CCC[C@H]2C(=O)NCc2cc(C(=N)N)cs2)cc1` [Compound 76, (S)-N-((4-carbamimidoylthiophen-2-yl)methyl)-1-((4-ethoxybenzoyl)glycyl)pyrrolidine-2-carboxamide], the IC50 was in the range of 100 to 1000 nM.
Same read-out and setting: next, `N=C(N)c1csc(CNC(=O)[C@@H]2CCCN2C(=O)CNC(=O)CCCOc2ccccc2)c1` [Compound 67, (S)-N-((4-carbamimidoylthiophen-2-yl)methyl)-1-((4-phenoxybutanoyl)glycyl)pyrrolidine-2-carboxamide]: less than 100 nM; `NCc1csc(CNC(=O)[C@@H]2CCCN2C(=O)CNC(=O)c2ccc(Oc3ccccc3)cc2)c1` [Compound 55, (S)-N-((4-(aminomethyl)thiophen-2-yl)methyl)-1-((4-phenoxybenzoyl)glycyl)pyrrolidine-2-carboxamide]: more than 1000 nM.
On the same count and under the same terms, next, `N#C/N=C(\N)c1csc(CNC(=O)[C@@H]2CC3(CN2C(=O)CNC(=O)c2ccc(Oc4ccccc4)cc2)OCCO3)c1` [Compound 63, (S,Z)-N-((4-(N′-cyanocarbamimidoyl)thiophen-2-yl)methyl)-7-((4-phenoxybenzoyl)glycyl)-1,4-dioxa-7-azaspiro[4.4]nonane-8-carboxamide]: less than 100 nM; `N=C(N)c1csc(CNC(=O)[C@@H]2CCCN2CCCC(=O)c2ccc(Oc3ccccc3)cc2)c1` [Compound 54, (S)-N-((4-carbamimidoylthiophen-2-yl)methyl)-1-(4-oxo-4-(4-phenoxyphenyl)butyl)pyrrolidine-2-carboxamide]: more than 1000 nM.
Still for that read-out and setting: next, `CCCCOc1ccc(C(=O)NCC(=O)N2CCC[C@H]2C(=O)NCc2cc(C(=N)N)cs2)cc1` [Compound 78, (S)-1-((4-butoxybenzoyl)glycyl)-N-((4-carbamimidoylthiophen-2-yl)methyl)pyrrolidine-2-carboxamide]: less than 100 nM; `CCCCCC(=O)NCC(=O)N1CCC[C@H]1C(=O)NCc1cc(C(=N)N)cs1` [Compound 82, (S)-N-((4-carbamimidoylthiophen-2-yl)methyl)-1-(hexanoylglycyl)pyrrolidine-2-carboxamide]: 100 to 1000 nM.
As to `CCCCc1ccc(C(=O)NCC(=O)N2CCC[C@H]2C(=O)NCc2cc(C(=N)N)cs2)cc1` [Compound 73, (S)-1-((4-butylbenzoyl)glycyl)-N-((4-carbamimidoylthiophen-2-yl)methyl)pyrrolidine-2-carboxamide], the IC50 is less than 100 nM.
Same read-out and setting: the value for `Cc1cc(C(=O)NCC(=O)N2CCC[C@H]2C(=O)NCc2cc(C(=N)N)cs2)ccc1Oc1ccccc1` [Compound 39, (S)-N-((4-carbamimidoylthiophen-2-yl)methyl)-1-((3-methyl-4-phenoxybenzoyl)glycyl)pyrrolidine-2-carboxamide] was less than 100 nM; that for `N=C(N)c1csc(CNC(=O)[C@@H]2CCCN2C(=O)CCC(=O)c2ccc(Oc3ccccc3)cc2)c1` [Compound 52, (S)-N-((4-carbamimidoylthiophen-2-yl)methyl)-1-(4-oxo-4-(4-phenoxyphenyl)butanoyl)pyrrolidine-2-carboxamide] was less than 100 nM; that for `CCCOc1ccc(C(=O)NCC(=O)N2CCC[C@H]2C(=O)NCc2cc(C(=N)N)cs2)cc1` [Compound 77, (S)-N-((4-carbamimidoylthiophen-2-yl)methyl)-1-((4-propoxybenzoyl)glycyl)pyrrolidine-2-carboxamide] was less than 100 nM.
Still for that read-out and setting: next, `Cc1cc(C(=O)NCC(=O)N2CC3(CCCC3)C[C@H]2C(=O)NCc2cc(C(=N)N)cs2)ccc1Oc1ccccc1` [Compound 46, (S)-N-((4-carbamimidoylthiophen-2-yl)methyl)-2-((3-methyl-4-phenoxybenzoyl)glycyl)-2-azaspiro[4.4]nonane-3-carboxamide]: less than 100 nM.

Still in this test, the particulars now being: Table 3; C1s purified from human serum, 1.16 nM; substrate Z-L-Lys-SBzl; read-out: C1s Protease Activity.
As for `N=C(N)c1csc(CNC(=O)[C@@H]2C[C@H](Oc3ccc(F)cc3)CN2C(=O)CNC(=O)c2ccc(Oc3ccccc3)cc2)c1` [Compound 103, (2S,4S)-N-((4-carbamimidoylthiophen-2-yl)methyl)-4-(4-fluorophenoxy)-1-((4-phenoxybenzoyl)glycyl)pyrrolidine-2-carboxamide], the IC50 was less than 100 nM.
The same measure, in the same setting: next, `N=C(N)c1csc(CNC(=O)[C@@H]2C[C@@H](c3ccccc3)CN2C(=O)CNC(=O)c2ccc(Oc3ccccc3)cc2)c1` [Compound 97, (2S,4S)-N-((4-carbamimidoylthiophen-2-yl)methyl)-1-((4-phenoxybenzoyl)glycyl)-4-phenylpyrrolidine-2-carboxamide]: less than 100 nM; `N=C(N)c1csc(CNC(=O)[C@@H]2C[C@@H]3CCCC[C@@H]3N2C(=O)CNC(=O)c2ccc(Oc3ccccc3)cc2)c1` [Compound 102, (2S,3aS,7aS)-N-((4-carbamimidoylthiophen-2-yl)methyl)-1-((4-phenoxybenzoyl)glycyl)octahydro-1H-indole-2-carboxamide]: less than 100 nM; `N=C(N)c1csc(CNC(=O)[C@@H]2C[C@H](C(F)(F)F)CN2C(=O)CNC(=O)c2ccc(Oc3ccccc3)cc2)c1` [Compound 100, (2S,4S)-N-((4-carbamimidoylthiophen-2-yl)methyl)-1-((4-phenoxybenzoyl)glycyl)-4-(trifluoromethyl)pyrrolidine-2-carboxamide]: less than 100 nM.
Regarding `N=C(N)c1csc(CNC(=O)[C@@H]2C[C@@H](OC(F)F)CN2C(=O)CNC(=O)c2ccc(Oc3ccccc3)cc2)c1` [Compound 101, (2S,4R)-N-((4-carbamimidoylthiophen-2-yl)methyl)-4-(difluoromethoxy)-1-((4-phenoxybenzoyl)glycyl)pyrrolidine-2-carboxamide], the IC50 was less than 100 nM.
Still for that read-out and setting: next, `N=C(N)c1csc(CNC(=O)[C@@H]2C[C@](F)(CF)CN2C(=O)CNC(=O)c2ccc(Oc3ccccc3)cc2)c1` [Compound 106, (2S,4R)-N-((4-carbamimidoylthiophen-2-yl)methyl)-4-fluoro-4-(fluoromethyl)-1-((4-phenoxybenzoyl)glycyl)pyrrolidine-2-carboxamide]: less than 100 nM.
